Experimental data taken from paper PMC4814829, “Design, synthesis, crystallization and biological evaluation of new symmetrical biscationic compounds as selective inhibitors of human Choline Kinase α1 (ChoKα1)” (Scientific Reports, 2016).

Legend:
[1] = test system: Jurkat cells; assay: Trypan blue exclusion assay; assay type: cell-based, human
Experimental: Human T-cell leukemia (Jurkat), human B-cell leukemia (RS 4,11) and human promyelocytic leukemia (HL-60) cells were grown in RPMI-1640 medium (Gibco, Milan, Italy). Breast adenocarcinoma (MCF-7 and MDA-MB-231), human non-small cell lung carcinoma (A549), human cervix carcinoma (HeLa), human prostate adenocarcinoma (PC-3), and human colon adenocarcinoma (HT-29) cells were grown in DMEM medium (Gibco, Milan, Italy). […] Stock solutions (10 mM) of the different compounds were obtained by dissolving them in DMSO. Individual wells of 96-well tissue-culture microtiter plates were inoculated with 100 μL of complete medium containing 8 × 10^3 cells. The plates were incubated at 37 °C in a humidified 5% CO2 incubator for 18 h prior to the experiments. […] In additional experiments, cell viability was also determined by calculating the values of trypan blue positive cells (dead cells) and trypan blue negative (live cells) from a mixture of the cell suspension and 0.4% trypan blue solution. page 7: S-7 0 24 48 72 0.0 2.0x10 5 4.0x10 5 6.0x10^5 Cells/ml Time ([…] Figure S5 […] washed, counted, and incubated in a drug-free medium. After a further 72 h of incubation, cell viability was analyzed by trypan blue exclusion assay as described in the experimental section. (1 picture or pasted object on this page, not shown here)

[2] = test system: panel of nine different human tumor-cell lines; assay: Antiproliferative activity against the panel of nine human tumor-cell lines; assay type: cell-based; conditions: Homo sapiens; range or bound over all tested cell lines; read-out: GI50 across the tumor-cell line panel
Experimental: Human T-cell leukemia (Jurkat), human B-cell leukemia (RS 4,11) and human promyelocytic leukemia (HL-60) cells were grown in RPMI-1640 medium (Gibco, Milan, Italy). Breast adenocarcinoma (MCF-7 and MDA-MB-231), human non-small cell lung carcinoma (A549), human cervix carcinoma (HeLa), human prostate adenocarcinoma (PC-3), and human colon adenocarcinoma (HT-29) cells were grown in DMEM medium (Gibco, Milan, Italy). Both media were supplemented with 115 units/mL of penicillin G (Gibco, Milan, Italy), 115 μg/mL of streptomycin (Invitrogen, Milan, Italy) and 10% fetal bovine serum (Invitrogen, Milan, Italy). Stock solutions (10 mM) of the different compounds were obtained by dissolving them in DMSO. Individual wells of 96-well tissue-culture microtiter plates were inoculated with 100 μL of complete medium containing 8 × 10^3 cells. The plates were incubated at 37 °C in a humidified 5% CO2 incubator for 18 h prior to the experiments. After medium removal, 100 μL of fresh medium containing the test compound at different concentrations was added to each well and incubated at 37 °C for 72 h. The percentage of DMSO in the medium in no case exceeded 0.25%.

[3] = test system: Jurkat cells; assay: Cell-cycle distribution analysis (PI, flow cytometry); assay type: cell-based, human
Experimental: (§1) For flow-cytometric analysis of the DNA content, 5 × 10^5 HeLa or Jurkat cells in exponential growth were treated with different concentrations of the test compounds for 24 and 48 h. After the incubation period, the cells were collected, centrifuged, and fixed with ice-cold ethanol (70%). The cells were then treated with lysis buffer containing RNAse A and 0.1% Triton X-100, and then stained with propidium iodide (PI). Samples were analyzed in a Cytomics FC500 flow cytometer (Beckman Coulter). DNA histograms were analyzed using MultiCycle for Windows (Phoenix Flow Systems).

[4] = test system: MCF-7 cells; assay: as above; assay type: cell-based, human
Experimental: [The source words this procedure for another cell line and reports this cell line under the same test.] as §1

[5] = test system: MDA-MB-231 cells; assay: as above; assay type: cell-based, human
Experimental: [The source words this procedure for another cell line and reports this cell line under the same test.] as §1

GI50 [2]: 27 to 120 nM
Structure (SMILES): CN(C)c1cc[n+](Cc2ccc(OCCOc3ccc(C[n+]4ccc(N(C)C)cc4)cc3)cc2)cc1.[Br-].[Br-] [Compound 10a, 1,1′-(((ethane-1,2-diylbis(oxy))bis(4,1-phenylene))bis(methylene))bis(4-(dimethylamino)pyridinium) bromide]
Proliferation after washout of compound ([1]; 72 h treatment, washed, further 72 h in drug-free medium): proliferation continued to be inhibited | Cell growth by trypan blue count ([1]; concentration-dependent): significantly inhibited cell growth | Cells with hypodiploid DNA content (apoptotic cells by cell-cycle analysis) [3]: not detected | Cell-cycle effect (G1 phase) ([3]; 24 h, concentration-dependent): induced a G1 arrest of the cell cycle | Cells with hypodiploid DNA content (apoptotic cells by cell-cycle analysis) ([4]; MCF-7): not detected | Cell-cycle effect (G1 phase) ([4]; MCF-7, 24 h, concentration-dependent): induced a G1 arrest of the cell cycle | Cells with hypodiploid DNA content (apoptotic cells by cell-cycle analysis) ([5]; MDA-MB-231): not detected | Cell-cycle effect (G1 phase) ([5]; MDA-MB-231, 24 h, concentration-dependent): induced a G1 arrest of the cell cycle
